System: deposited Aβ
Experiment: Prior 4-month study of BACE inhibitor in feed in aged PDAPP mice
Assay type: in vivo

## C[C@@]1(c2cc(-c3cncnc3)c(F)cc2F)CCSC(N)=N1 [LY2811376]
  change in the deposited Aβ over the 4-month interval: no change in the deposited Aβ

From US11312763B2, “Anti-N3pGlu amyloid beta peptide antibodies and uses thereof” (Eli Lilly and Company, priority 2016, dated 2022)
